The source of these data is US11873405B2, “High oleic oil compositions and uses thereof” (priority 2021, dated 2024).

In assay [1] the test system is E06 mutant (Strain K) microalgae cells. In words: Selection for tolerance to membrane stress: growth (OD750) in 3-day lipid production culture, 96-deep well block. It counts as cell-based, Prototheca wickerhamii. Particulars: fixed 1.6 μM triparanol plus increasing phenethyl alcohol, FIG. 6. The method, then:
The mutant strain, Strain 0_E06 (Strain E06), while not phenotypically stable, consistently achieved higher oleate levels than the mutant lineage that gave rise to Strain 1 (TABLE 3). As such, this mutant lineage was selected for further rounds of classical strain improvement, and designated as “Strain K”. Following overnight growth in M21+40 g/L glucose seed media to mid-log phase, the E06 mutant was exposed to 270 mM ethyl methanesulfonate (EMS) in 0.1 M potassium phosphate buffer (pH 7.0) for 45 min at room temperature in dark and with periodic gentle agitation. Mutagenesis was terminated with the addition of a sodium thiosulfate solution to final concentration of 3% (w/v). In parallel, a mock-mutagenized control cell population was taken through all the same manipulations, except for exposure to EMS. Cells were collected using 0.2-micron filter sterilization units, washed extensively with water, and then washed with and into 5 mL M20+5 g/L glucose pre-seed media. Pre-seed cultures were incubated at 28° C./900 rpm/80% humidity for 72 h. An 8% (v/v) inoculum from each culture was then used to initiate a seed culture in 10 mL of standard M21+5 g/L glucose seed media in 50-mL bioreactor tubes. […] Growth was then assessed by measuring optical density at 750 nm wavelength (OD750) in a Molecular Devices Spectramax M5 plate reader. […]

The test system is the same in assay [2]. Kind of assay: Selection for tolerance to triparanol: growth in 3-day lipid production culture, 96-deep well block. It counts as cell-based, Prototheca wickerhamii. Particulars: cells exposed to increasing amounts of triparanol, FIG. 7. The method, then: The cryo-vials were thawed and used to initiate a 10 mL pre-seed culture in bioreactor tube, which was incubated for 72 h at 28° C./200 rpm. Two rounds of selection and enrichment with increasing amounts of triparanol were conducted following the strategy outlined in FIG. 3. […] This population was collected on sterile filters, diluted, and spread on solid media. The resulting clonal isolates were screened in our automated 96-well block-based lipid production and glucose consumption assay. A number of strains with increased oleate levels were identified among the mutant clones (TABLE 5). Strains validated in repeat assays were then assessed for phenotypic stability. Stable strains were cryo-preserved.
Cells were exposed to increasing amounts of triparanol during a 3-day lipid production culture in a 96-deep well block. Significant inhibition of growth occurred at […] concentrations >2 μM. Rare surviving cells presumed to be in wells where 50% inhibition was observed were recovered by sterile filtration, washed with and collected from the filter in M20+glucose pre-seed media. The cultures were then used to initiate another round of selection. By the third round of selection (right panels), a subtle difference in the growth of the mutant population compared to the mock-mutagenized controls was observed. […]

As for `OCCc1ccccc1` [phenethyl alcohol], the “concentrations at which significant inhibition of growth occurred” value in assay [1] was above 3.6 mM; in assay [2] it was above 2 µM.
